Assay results taken from PMC7248712 (2020).

Key:
[1] = tested on: poly U (RNA, polymer) U; experiment: fluorimetric titration, Scatchard (McGhee-von Hippel) fit; conditions: Na+ (sodium cacodylate, I = 0.05 M), pH 7.0, 1 µM compound, n fixed 0.5 per polynucleotide base
[2] = tested on: poly C (RNA, polymer) C; experiment: fluorimetric titration; conditions: Na+ (sodium cacodylate, I = 0.05 M), pH 7.0, 1 µM compound
[3] = tested on: poly (dAdT)2 (DNA, polymer) AT; experiment: fluorimetric titration, Scatchard (McGhee-von Hippel) fit; conditions: Na+ (sodium cacodylate, I = 0.05 M), pH 7.0, room temperature, 1 µM compound, n fixed 0.2 per polynucleotide base
[4] = tested on: poly A (RNA, polymer) A; experiment: as above; conditions: Na+ (sodium cacodylate, I = 0.05 M), pH 7.0, 1 µM compound, n fixed 0.5 per polynucleotide base
[5] = tested on: poly A-poly U (RNA, polymer) A/U; experiment: as above; conditions: Na+ (sodium cacodylate, I = 0.05 M), pH 7.0, room temperature, 1 µM compound, n fixed 0.2 per polynucleotide base
[6] = tested on: poly (dAdT)2 (DNA, polymer) AT; experiment: fluorimetric titration; conditions: Na+ (sodium cacodylate, I = 0.05 M); pH 7.0, 1 µM compound; up to 100-fold excess of polynucleotide bases
[7] = tested on: poly G (RNA, polymer) G; experiment: fluorimetric titration; conditions: Na+ (sodium cacodylate, I = 0.05 M); pH 7.0, 1 µM compound; up to 100-fold excess of polynucleotide bases
[8] = tested on: poly A-poly U (RNA, polymer) A/U; experiment: fluorimetric titration; conditions: Na+ (sodium cacodylate, I = 0.05 M); pH 7.0, 1 µM compound; up to 100-fold excess of polynucleotide bases
[9] = tested on: poly A (RNA, polymer) A; experiment: fluorimetric titration; conditions: Na+ (sodium cacodylate, I = 0.05 M); pH 7.0, 1 µM compound; up to 100-fold excess of polynucleotide bases
[10] = tested on: poly U (RNA, polymer) U; experiment: fluorimetric titration; conditions: Na+ (sodium cacodylate, I = 0.05 M); pH 7.0, 1 µM compound; up to 100-fold excess of polynucleotide bases

log Ks [1] | binding ([2]; emission change too small to fit, authors state binding not supported) | log Ks [3] | log Ks [4] | log Ks [5] | binding [6] | binding ([2]; up to 100-fold excess of polynucleotide bases) | binding [7] | binding [8] | binding [9] | binding [10] | Structure (SMILES)
4.7 | no | 5.7 | 5.2 |  |  |  |  |  |  |  | COC(=O)[C@H](CCCCNC(=O)CCCc1ccc2ccc3cccc4ccc1c2c34)n1cc(Cn2cc3c4c(ncnc42)Nc2ncccc2-3)nn1
 |  | 5.0 |  | 5.5 |  |  |  |  |  |  | COC(=O)[C@H](CCCCNC(=O)c1ccc2ccc3cccc4ccc1c2c34)n1cc(Cn2cc3c4c(ncnc42)Nc2ncccc2-3)nn1
 |  |  |  |  | no | no | no | no | no | no | NCCCC[C@@H](C(=O)O)n1cc(Cn2cc3c4c(ncnc42)Nc2ncccc2-3)nn1
